# Results: patent publication US20020025940A1, “Methods and compositions for sensitive and rapid, functional identification of genomic polynucleotides and use for cellular assays in drug discovery” (Aurora Biosciences Corporation, priority 1997, published 2002)
# Test system: repressed BLEC Jurkat clones
# Assay: Characterization of repressed BLEC Jurkat clones, relative repression of beta-lactamase
# Type: cell-based, human
# Settings: PHA 10 microgram/ml, CsA 100 nM, PMA 8 nM, Thaps 1 microM
# Excerpt: These clones represent cells in which the BLEC trapping construct had integrated into a gene down regulated by PHA (T-cell) activation. Thus, these cells report the transcriptional repression of a gene upon cellular activation. Individual clones were identified and isolated by FACS using CCF2/AM to detect beta-lactamase activity using the following repressed sorting paradigm.
# A first sort was used to isolate a population of cells that constitutively express beta-lactamase by identifying and isolating a population of blue cells from an unstimulated population of BLEC transfected Jurkat cells contacted with CCF2/AM. The sorted population of cells represented 2.89% of the unsorted population. These cells were cultured, divided into two pools, and stimulated with one of two different stimuli, either 10 micrograms/ml PHA for 18 hours, or 8 nM PMA and 1 microM Thapsigargin for 18 hours. These stimulated cells were contacted with CCF2 (loading in the presence of 400 PET (4% weight/volume) and Pluoronic 128 (100 micrograms/ml)) and the green cells in the population were sorted using FACS. The sorted population represented 8.41% of the cell population prior to the second sort. The third round of FACS was for single blue unstimulated cells. The population of cells obtained represented 18.2% of the cell population prior to the third sort.
# This sorting procedure represents a 2,260-fold enrichment for PHA repressible clones. These clones have the beta-lactamase gene integrated into a gene that is down regulated by PHA stimulation of the cells. Six of 80 individual clones tested were repressed by PHA or PMA+Thapsigargin. All of these clones were confirmed to be independent integration events by genomic Southern analysis using a DNA probe encoding beta-lactamase.
# Table 7 and Table 8 provide data similar to that provided in Table 5 for all of the clones obtained by the methods of Examples 5 to 7.
substance,measurement,setting,value
phytohemaglutinin [PHA],Relative repression of beta-lactamase in the indicated clone by the following activator,clone 183/97pptr2,10
same,Relative repression of beta-lactamase in the indicated clone by the following activator,clone J83/97pptr1,90
same,Relative repression of beta-lactamase in the indicated clone by the following activator,clone J83/97pptr3,10
same,Relative repression of beta-lactamase in the indicated clone by the following activator,clone J83/97pptr4,60
same,Relative repression of beta-lactamase in the indicated clone by the following activator,clone J83/97pptr5,50
same,Relative repression of beta-lactamase in the indicated clone by the following activator,clone J83/97pptr6,70
